Results as given in US4912116A, “Propiophenone derivatives for treatment of pollakiuria (frequency urination)” (Hokuriku Pharmaceutical Co., Ltd., priority 1986, dated 1990).
Structures can show the parent of a compound that is named as a salt.

Assays:
[1] = system: micturition reflex (rhythmic bladder contractions); assay: Inhibition of micturition reflex (rhythmic bladder contractions) in anesthetized rats; format: in vivo, male wister rats; conditions: for Disappearance time (of bladder contractions): i.v., 3 rats, mean ± S.E.; for ED (3 min disappearance of contractions): iv, read-out: ED3 (dose at which rhythmic bladder contractions disappeared in three (3) minutes)
Description: (§1) statistical analysis: Each data of Experiment 1-6 represents the mean±S.E. statistical analysis of the data was performed using student's t-test.
According to the method described by Morikawa et al. (Folia phamacol. japon.: 88,355 (1986), male wister rats weighing about 300 g (in case of intraduodenal administration, fasted 18-20 hours) were anesthetized with urethane (500 mg/kg, i.p.) and alpha-chloralose (50 mg/kg, i.p.), and fixed on their back.
Then, through a midline incision of the abdomen, the urinary bladder was exposed, provided with a small incision, and a balloon (capacity about 1 ml) was inserted into the bladder dome.
The balloon was connected to a pressure transducer and variations of inside pressure were recorded on a recorder.
Micturition reflex was elicited by elevating balloon pressure 10-20 cm H2 O.
In case of intravenous administration, the drug was administrated through a cannula inserted into the left jugular vein and, in case of intraduodenum administration, the drug was administrated through a cannula into the duodenum from outside the stomach.
In case of intravenous administration, the drug was evaluated by the dissappearance time of bladder contractions caused by micturition reflex.
In case of intraduodenal administration, the sum total of amplitude of bladder contractions caused by the micturition reflex was calculated during each five minutes at 5 min. before and 15, 30, 45, and 60 min. after the administration.
Then, the maximum inhibition rate was determined from one of the above judgment times compared with that of before the administration, and the dose which inhibited 50 percent of the sum total of amplitude of bladder contractions during five minutes (ED 50 value), was calculated from the graph.

[2] = system: cystometrogram (time to micturition); assay: Effects on the cystometrogram (Cat); format: in vivo, Mongrel adult cats; conditions: cats
Description: as §1
Mongrel adult cats weighing about 3 kg (in case of intraduodenal administration, fasted 24 hours) were anesthetized with urethane (500 mg/kg, i.p.) and alpha-chloralose (50 mg/kg, i.p.) and fixed on their back.
After midline incision of the abdomen, the ureters were ligated and polyethylene tubes were inserted into the kidney side and urinary bladder side, urine was led out of the body from the kidney side, and warm saline was infused using a continuous infusion pump from the urinary bladder side.
Then, a catheter was inserted into the bladder dome and connected to a pressure transducer Intravesical pressure was recorded on a recorder.
The infusion rate of saline was changed (0.7-6.6 ml/min) so as to induce the time to micturition from saline infusion at about five minutes.
Each of delayed time of micturition was evaluated. In case of intravenous administration, the drug was administered through a cannula inserted into the right femoral vein at 30 seconds before saline infusion.
In case of intraduodenal administration, the drug was administrated through a tube inserted into the duodenum by way of mouth at the time of saline infusion, and the time to micturition was measured at 15 min. intervals until 90 min.

[3] = system: cystometrogram (time to micturition); assay: Effects on the cystometrogram (Dog); format: in vivo, Mongrel adult dogs; conditions: i.v., dogs, mean ± S.E., saline 6.0 ± 13.8
Description: as §1
Mongrel adult dogs weighing about 10 kg were anesthetized with thiopental (20 mg/kg, i.v.) and immobilized with gallamine (2 mg/kg, i.v.), and fixed on their back.
In the experiment, infusion of pentobarbital (3 mg/kg/hr, i.v.) and gallamine (3 mg/kg i.v.) were continuted, and artifical respiration was performed (20 times/min, 20 ml air/kg).
After midline incision of the abdomen, the ureters were ligated and polyethylene tubes were inserted into the kidney side and the urinary bladder side. Urine was led out of the body from the kidney side, and warm saline was infused using a continuous infusion pump from the urinary bladder side.
Then, a catheter was inserted into the bladder dome and connected to a pressure transducer. Intravesical pressure was recorded on a recorder.
The infusion rate of saline was changed (6-35 ml/min) so as to induce the time to micturition from the saline infusion (time to micturition) at about five minutes.
The drug was administered (through a cannula inserted into the right femoral vein) at the second minute before the last time to micturition, and the delayed time of micturition was evaluated.

in vivo = conditions: mouse, oral, mortality for one week, Probit method
Description: Five to ten male ddY mice aged 4-5 weeks were used for each determination.
The test drug (5-8 dose levels) was orally administrated, and the LD50 value was calculated by Probit method from the mortality for one week after administration.

Compound | Disappearance time (of bladder contractions) ([1]; 1 mg/kg) [min] | ED (3 min disappearance of contractions) ([1]; Rattus norvegicus) [mg/kg] | LD50 at 168 h (in vivo) [mg/kg] | Disappearance time (of bladder contractions) ([1]; 2 mg/kg) [min] | Disappearance time (of bladder contractions) ([1]; 4 mg/kg) [min] | Disappearance time (of bladder contractions) ([1]; 8 mg/kg) [min] | further results
Cc1c(-c2ccccc2)oc2c(C(=O)OCCN3CCCCC3)cccc2c1=O [flavoxate-HCl, reference compound] | 1.1 ± 1.1 | 1.4 | 1330 |  |  |  | Disappearance time (of bladder contractions) ([1]; 3 mg/kg): 7.5 ± 2.7 min; ED50 ([1]; Rattus norvegicus, intraduodenal administration, read-out: ED50 (dose which inhibited 50 percent of the sum total of amplitude of bladder contractions during five minutes)): 270 mg/kg; Delayed time to micturition ([2]; 1 mg/kg, i.v., mean ± S.E., saline 6.6 ± 10.2): 12.0 ± 10.8 s; Delayed time to micturition ([2]; 4 mg/kg, i.v., mean ± S.E., saline 6.6 ± 10.2): 39.0 ± 43.8 s; Delayed time to micturition ([2]; 8 mg/kg, i.v., mean ± S.E., saline 6.6 ± 10.2): -16.8 ± 36.6 s; Delayed time to micturition ([2]; 30.0 mg/kg, i.d., after 30 min., water 22.2 ± 16.2): -45.6 ± 37.8 s; delayed effect on the cystometrogram (in words) ([2]; intravenous and intraduodenal): not recognized to produce delayed effects; Delayed time of micturition ([3]; 1 mg/kg): 0.6 ± 35.4 s; Delayed time of micturition ([3]; 3 mg/kg, * p < 0.05 vs last time to micturition): 30.6 ± 44.4 s
CC(CN1CCCC1)C(=O)c1ccc(C2CCCCC2)cc1 (stereo not shown) [Compound 2] | 1.0 ± 1.0 | 2.2 | 587 | 2.5 ± 1.3 | 6.3 ± 0.8 |  | 
CC(CN1CCCC1)C(=O)c1ccc(CF)cc1 (stereo not shown) [Compound 8] |  |  |  | 1.5 ± 4.79 | 2.4 ± 2.0 | 5.2 ± 2.5 | 
CC(CN1CCCCCC1)C(=O)c1ccc(F)cc1 (stereo not shown) [Compound 9] | 0.5 ± 0.1 | 2.7 |  | 1.2 ± 0.8 | 5.5 ± 2.7 |  | 
CC(CN1CCOCC1)C(=O)c1cccc(F)c1 (stereo not shown) [Compound 7] |  | 2.8 |  | 1.8 ± 1.0 |  | 6.8 ± 2.1 | 
COc1ccc(C(=O)C(C)CN2CCCC2)c(C)c1C (stereo not shown) [Compound 5] | 6.3 ± 1.4 | 0.25 |  |  |  |  | Disappearance time (of bladder contractions) ([1]; 0.25 mg/kg): 3.0 ± 0.4 min
CCc1ccc(C(=O)C(C)CN2CCCCC2)cc1 (stereo not shown) [Compound 3] | 0.4 ± 0.4 | 1.4 |  | 5.3 ± 2.6 | 12.0 ± 1.2 |  | 
Cc1ccc(C(=O)C(C)CN2CCCCC2)cc1 (stereo not shown) [Compound 4] | 1.0 ± 0.7 | 2.4 | 450 | 2.3 ± 0.5 | 4.9 ± 1.9 |  | 
CN1CCCC1CCC(=O)c1ccc(Cl)cc1 (stereo not shown) [Compound 6] |  | 8 |  | 1.1 ± 0.3 | 1.9 ± 0.3 | 3.0 ± 0.3 | 
